Series [1] can be described thus: stability to hydrolysis (boiling in deionized water, titration of liberated phosphorous acid). Type of series: physicochemical. The protocol: The stability to hydrolysis was tested according to the process disclosed in DT-OS 2,144,181, pages 7/8. 5.0 g each of the respective phosphite were boiled for 20 and 60 minutes in 100 ml of deionized water. The mixture was then allowed to cool, filtered to remove residues, if any, and in the filtrate the liberated phosphorous acid was titrated with 0.1N KOH against bromophenol blue.
In the following table is indicated the degree of hydrolysis determined under the specified conditions as quotient of the actual consumption of KOH and the theoretically possible consumption with a complete hydrolysis.

Series [2] is described as follows: static heat stability (furnace stability) in PVC, time until black coloration. Conditions: heating cabinet with air circulation, 0.5 part phosphite.
Description: (§1) The parts in the following description are parts by weight.
(§2) Each time 100 parts of a mass polyvinyl chloride having a K value of 60 were intimately mixed with
0.2 part of 2-phenyl-indole,
3.0 parts of epoxidized soybean oil
0.3 part of stearyl stearate
0.5 part of glycerol monostearate and
(§3) 0.5 part of the respective phosphite of the invention.
In order to measure the static heat stability (furnace stability) a rough sheet was prepared as described above and the sheet was rolled for a further 10 minutes at 180° C. Flat samples having a diameter of about 30 mm were punched out of the rough sheet removed from the mill and having a thickness of about 0.5 mm, the samples were wrapped in aluminum foil and heated to 180° C. in a heating cabinet with air circulation. At intervals of 10 minutes each a sample was taken from the cabinet and the color thereof was compared with that of the color chart.
Series [3] is described as follows: dynamic heat stability (rolling stability) in PVC, discoloration of rough sheet. As to conditions: 180° C, two roll mill, 0.5 part phosphite.
Description: as §1, §2
0.2 part of 2-phenyl-indole,
3.0 parts of epoxidized soybean oil
0.3 part of stearyl stearate
0.5 part of glycerol monostearate and
as §3
To measure the dynamic heat stability (rolling stability) the mixtures were rolled on a two roll mill at 180° C. and with 20 revolutions per minute. At intervals of 10 minutes samples were taken from the rough sheet and the color of the samples was compared with the colors of a proper color chart. Rolling was continued until the rough sheet had turned black.
In the color chart used the individual notes have the following meaning:
4 = dark yellow-brown color
Where [4] appears, read: 20 minutes boiling in deionized water.
Setting [5] is: 60 minutes boiling in deionized water.
Where [6] appears, read: boiling deionized water, 20 min.

Regarding `CCCCCCCCCCCCCCCCCCOP1OCC2(CO1)COP(OCCCCCCCCCCCCCCCCCC)OC2` (stereo not drawn) [distearyl-pentaerthrityl-diphosphite, distearyl-pentaerythritol diphosphite, reference compound], the “degree of hydrolysis after 20 minutes” value in series [1] (setting [4]) is 55 % of theory. Further, in series [1] (setting [5]), the “degree of hydrolysis after 60 minutes” value is given as 68 % of theory. In addition, in series [2], the “static (furnace) stability, black coloration at 180° C after” value (“static (furnace) stability” for short) is listed as 50 '. In addition, in series [3], the “dynamic (rolling) stability, discoloration of rough sheet after a rolling time of 10'” value (shortened to “dynamic (rolling) stability … of 10'”) is 2-3; the “dynamic (rolling) stability, discoloration of rough sheet after a rolling time of 20'” value (“dynamic (rolling) stability … of 20'” below) is recorded as 2-3; the “dynamic (rolling) stability, discoloration of rough sheet after a rolling time of 30'” value (from here on “dynamic (rolling) stability … of 30'”) amounted to 3; the “dynamic (rolling) stability, discoloration of rough sheet after a rolling time of 40'” value (shortened to “dynamic (rolling) stability … of 40'”) worked out at 3. In series [3], the “dynamic (rolling) stability, discoloration of rough sheet after a rolling time of 50'” value (“dynamic (rolling) stability … of 50'” below) is given as 4 and the “dynamic (rolling) stability, discoloration of rough sheet after a rolling time of 60'” value (“dynamic (rolling) stability … of 60'” below) is on record as 5.
For `c1ccc(OP(Oc2ccccc2)Oc2ccccc2)cc1` [triphenyl phosphite, reference compound], the “degree of hydrolysis after 20 minutes” value in series [1] (setting [4]) is 84 % of theory. In addition, the “degree of hydrolysis after 60 minutes” value in series [1] (setting [5]) is 100 % of theory. Moreover, the “static (furnace) stability” value in series [2] is on record as 50 '. Moreover, in series [3], the “dynamic (rolling) stability … of 10'” value stood at 1; the “dynamic (rolling) stability … of 20'” value was determined as 2; the “dynamic (rolling) stability … of 30'” value is listed as 2-3; the “dynamic (rolling) stability … of 40'” value was 5.
In the case of “Di-behenyl-erythrityl diphosphite [Example 8]”, in series [1] (setting [6]), the “degree of hydrolysis after 20 minutes” value was 7 % of theory. The “degree of hydrolysis after 60 minutes” value in series [1] (boiling deionized water, 1 h) is 11 % of theory. Further, in series [2], the “static (furnace) stability” value is 60 '. Besides, in series [3], the “dynamic (rolling) stability … of 10'” value is listed as 1; the “dynamic (rolling) stability … of 20'” value is on record as 1-2; the “dynamic (rolling) stability … of 30'” value is listed as 1-2; the “dynamic (rolling) stability … of 40'” value was found to be 2. In addition, in series [3], the “dynamic (rolling) stability … of 50'” value is 3; the “dynamic (rolling) stability … of 60'” value is reported as 4; the “dynamic (rolling) stability, discoloration of rough sheet after a rolling time of 70'” value (from here on “dynamic (rolling) stability … of 70'”) was determined as 5.
Regarding “Tri-behenyl-mannityl triphosphite [Example 5]”, in series [1] (setting [6]), the “degree of hydrolysis after 20 minutes” value was 7 % of theory. The “degree of hydrolysis after 60 minutes” value in series [1] (boiling deionized water, 1 h) was 23 % of theory. For the same compound, in series [3], the “dynamic (rolling) stability … of 10'” value worked out at 1; the “dynamic (rolling) stability … of 20'” value is given as 1-2; the “dynamic (rolling) stability … of 30'” value was 2; the “dynamic (rolling) stability … of 40'” value was determined as 2. In addition, in series [3], the “dynamic (rolling) stability … of 50'” value was 3; the “dynamic (rolling) stability … of 60'” value was found to be 3; the “dynamic (rolling) stability … of 70'” value is 4; the “dynamic (rolling) stability, discoloration of rough sheet after a rolling time of 80'” value (“dynamic (rolling) stability … of 80'” for short) came to 5.
As for “Tri-behenyl-sorbityl triphosphite [Example 4]”, the “degree of hydrolysis after 20 minutes” value in series [1] (setting [6]) is given as 10 % of theory. Further, in series [3], the “dynamic (rolling) stability … of 10'” value is reported as 1; the “dynamic (rolling) stability … of 20'” value was 1-2; the “dynamic (rolling) stability … of 30'” value was found to be 2; the “dynamic (rolling) stability … of 40'” value was found to be 2. Besides, in series [3], the “dynamic (rolling) stability … of 50'” value was determined as 3; the “dynamic (rolling) stability … of 60'” value is listed as 3; the “dynamic (rolling) stability … of 70'” value amounted to 4; the “dynamic (rolling) stability … of 80'” value is recorded as 5.
Take “Tri-stearyl-dulcityl-triphosphite [Example 3]”: the “static (furnace) stability” value in series [2] is 60 '. In series [3], the “dynamic (rolling) stability … of 10'” value came out at 1; the “dynamic (rolling) stability … of 20'” value was 1-2; the “dynamic (rolling) stability … of 30'” value amounted to 2; the “dynamic (rolling) stability … of 40'” value was found to be 3. Besides, in series [3], the “dynamic (rolling) stability … of 50'” value was found to be 4 and the “dynamic (rolling) stability … of 60'” value is recorded as 5.
As to “Tri-stearyl-mannityl-triphosphite [Example 2]”, in series [1] (setting [6]), the “degree of hydrolysis after 20 minutes” value is 5 % of theory. In series [1] (boiling deionized water, 1 h), the “degree of hydrolysis after 60 minutes” value is 10 % of theory. Further, in series [3], the “dynamic (rolling) stability … of 10'” value was 1; the “dynamic (rolling) stability … of 20'” value is listed as 1-2; the “dynamic (rolling) stability … of 30'” value is 2; the “dynamic (rolling) stability … of 40'” value is reported as 2-3. Further, in series [3], the “dynamic (rolling) stability … of 50'” value was 3; the “dynamic (rolling) stability … of 60'” value came out at 3; the “dynamic (rolling) stability … of 70'” value stood at 4; the “dynamic (rolling) stability … of 80'” value is reported as 4.
Turning to “Tri-stearyl-sorbityl triphosphite [Example 1]”, the “degree of hydrolysis after 20 minutes” value in series [1] (setting [6]) is given as 7 % of theory. Moreover, the “degree of hydrolysis after 60 minutes” value in series [1] (boiling deionized water, 1 h) is 17 % of theory. Moreover, in series [3], the “dynamic (rolling) stability … of 10'” value turned out to be 1; the “dynamic (rolling) stability … of 20'” value is given as 1-2; the “dynamic (rolling) stability … of 30'” value is recorded as 2; the “dynamic (rolling) stability … of 40'” value is given as 2-3. Besides, in series [3], the “dynamic (rolling) stability … of 50'” value turned out to be 3; the “dynamic (rolling) stability … of 60'” value came out at 3; the “dynamic (rolling) stability … of 70'” value is listed as 4; the “dynamic (rolling) stability … of 80'” value stood at 4.
On to “Tristearyl-sorbityl diphosphite monophosphate [Example 25]”, for which the “degree of hydrolysis after 20 minutes” value in series [1] (setting [4]) is 9 % of theory.
“distearyl-monododecyl-mercapto-sorbityl triphosphite [Example 23]”: the “static (furnace) stability” value in series [2] is 60 '. In series [3], the “dynamic (rolling) stability … of 10'” value came to 2; the “dynamic (rolling) stability … of 20'” value amounted to 3; the “dynamic (rolling) stability … of 30'” value is recorded as 3; the “dynamic (rolling) stability … of 40'” value was 3. Also, in series [3], the “dynamic (rolling) stability … of 50'” value is 3-4; the “dynamic (rolling) stability … of 60'” value worked out at 4; the “dynamic (rolling) stability … of 70'” value is recorded as 5.
For “distearyl-sorbityl diphosphite [Example 10]”, in series [2], the “static (furnace) stability” value is listed as 60 '. In series [3], the “dynamic (rolling) stability … of 10'” value came to 1; the “dynamic (rolling) stability … of 20'” value is given as 1-2; the “dynamic (rolling) stability … of 30'” value is 2; the “dynamic (rolling) stability … of 40'” value amounted to 3. In addition, in series [3], the “dynamic (rolling) stability … of 50'” value came to 4 and the “dynamic (rolling) stability … of 60'” value came to 5.
Regarding “trisnonylphenyl phosphite [reference compound]”, the “degree of hydrolysis after 20 minutes” value in series [1] (setting [4]) is 57 % of theory. Further, the “degree of hydrolysis after 60 minutes” value in series [1] (setting [5]) is reported as 92 % of theory. Moreover, the “static (furnace) stability” value in series [2] is reported as 40 '. Moreover, in series [3], the “dynamic (rolling) stability … of 10'” value was 1; the “dynamic (rolling) stability … of 20'” value came to 2; the “dynamic (rolling) stability … of 30'” value was 2-3; the “dynamic (rolling) stability … of 40'” value was determined as 3. For the same compound, in series [3], the “dynamic (rolling) stability … of 50'” value was determined as 5.
